For this assay, the system named is strain lcb1::kanMX, pNS149. In words: IPC synthase screen: growth inhibition of the engineered yeast strain with or without added phytosphingosine. The assay is classed as cell-based, S. cerevisiae. The text has this: Therefore in a first aspect of the present invention we provide a screening assay for identifying a selective IPC synthase inhibitor which assay comprises contacting a test compound with engineered cells whose capability to synthesize sphingolipids depends on the addition of exogenous phytosphingosine and which are capable of sustained growth via compensatory phospholipids, adding phytosphingosine, and determining IPC synthase inhibition by the test compound by reference to any cell growth inhibition.
The utility of the lcb1::kanMX pNS149 strain to identify inhibitors of IPC synthase was evaluated using aureobasidinA as a test compound. The lcb1::kanMX pNS149 strain is a further independent aspect of the invention.
Inhibition of growth by aureobasidinA in strain lcb1::kanMX, pNS149 with added phytosphingosine.
Inhibition of growth by aureobasidinA in strain lcb1::kanMX, pNS149 without added phytosphingosine.

*1 amine or outer side, *2 acyl side, *3 side chain or, on linkers, in order; H or OH if unused. Where a SMILES comes first, the peptide text is derived from it. [ ]: non-standard residue; d: D form. X1 = CC[C@@H](C)[C@@H](O[*:1])C(=O)[*:2]; NMeVal(β-OH) = CN[C@H](C(=O)O)C(C)(C)O; NMeF = CN[C@@H](Cc1ccccc1)C(=O)O; aIle = CC[C@@H](C)[C@H](N)C(=O)O; NMeV = CN[C@H](C(=O)O)C(C)C

Turning to `CC[C@@H](C)[C@@H]1NC(=O)[C@@H]2CCCN2C(=O)[C@H](Cc2ccccc2)N(C)C(=O)[C@H](Cc2ccccc2)NC(=O)[C@H](C(C)C)N(C)C(=O)[C@@H]([C@H](C)CC)OC(=O)[C@H](C(C)(C)O)N(C)C(=O)[C@H](CC(C)C)NC(=O)[C@H](C(C)C)N(C)C1=O` [aureobasidinA] (cyclo(F[NMeF]P[aIle][NMeV]L[NMeVal(β-OH)][X1][NMeV])), the Inhibition of growth result by setting is: (pNS149, with added phytosphingosine (FIG. 1a)) “very pronounced”; (pNS149, without added phytosphingosine (FIG. 1b)) “absent”.
